Laboratory results from patent US6903117B2, “Indole derivatives for the treatment of osteoporosis” (Nikem Research S.R.L., priority 1996, dated 2005).
Where a name gives a salt, the structure may show the parent alone. Read-outs that look alike come from different tables or passages of the source.

Columns and labels:
[1] = target: bafilomycin-sensitive ATPase in chicken osteoclasts (Gallus gallus, UniProt A0A8V0Z1D5+Q9I8C8); assay: Inhibition of bafilomycin-sensitive ATPase in chicken osteoclasts; type: biochemical
Sequence of bafilomycin-sensitive ATPase in chicken osteoclasts (Q9I8C8 entry or part of it): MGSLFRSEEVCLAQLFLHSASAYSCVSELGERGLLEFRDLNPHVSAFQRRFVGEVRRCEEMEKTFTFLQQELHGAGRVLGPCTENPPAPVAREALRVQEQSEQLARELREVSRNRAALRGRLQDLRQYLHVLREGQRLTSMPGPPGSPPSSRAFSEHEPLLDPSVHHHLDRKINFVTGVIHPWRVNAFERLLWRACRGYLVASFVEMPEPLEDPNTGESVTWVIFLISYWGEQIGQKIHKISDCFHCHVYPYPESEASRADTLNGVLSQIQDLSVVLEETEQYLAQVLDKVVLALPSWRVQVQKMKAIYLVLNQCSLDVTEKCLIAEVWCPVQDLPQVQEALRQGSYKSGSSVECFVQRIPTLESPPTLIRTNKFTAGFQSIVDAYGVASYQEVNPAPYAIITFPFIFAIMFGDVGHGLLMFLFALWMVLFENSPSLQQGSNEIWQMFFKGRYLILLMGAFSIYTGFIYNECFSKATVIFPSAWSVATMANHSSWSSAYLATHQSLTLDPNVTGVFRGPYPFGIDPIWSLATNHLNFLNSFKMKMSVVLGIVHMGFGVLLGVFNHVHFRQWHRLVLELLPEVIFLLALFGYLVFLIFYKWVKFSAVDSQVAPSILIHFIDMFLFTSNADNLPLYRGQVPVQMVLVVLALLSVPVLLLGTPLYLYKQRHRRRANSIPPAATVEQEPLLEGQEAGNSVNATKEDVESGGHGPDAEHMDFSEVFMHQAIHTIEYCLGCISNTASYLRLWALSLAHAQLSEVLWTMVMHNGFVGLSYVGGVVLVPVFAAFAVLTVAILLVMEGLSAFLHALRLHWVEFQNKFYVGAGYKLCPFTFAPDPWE
Sequence of bafilomycin-sensitive ATPase in chicken osteoclasts (P49712 whole entry, further chain, the tested form may be a part): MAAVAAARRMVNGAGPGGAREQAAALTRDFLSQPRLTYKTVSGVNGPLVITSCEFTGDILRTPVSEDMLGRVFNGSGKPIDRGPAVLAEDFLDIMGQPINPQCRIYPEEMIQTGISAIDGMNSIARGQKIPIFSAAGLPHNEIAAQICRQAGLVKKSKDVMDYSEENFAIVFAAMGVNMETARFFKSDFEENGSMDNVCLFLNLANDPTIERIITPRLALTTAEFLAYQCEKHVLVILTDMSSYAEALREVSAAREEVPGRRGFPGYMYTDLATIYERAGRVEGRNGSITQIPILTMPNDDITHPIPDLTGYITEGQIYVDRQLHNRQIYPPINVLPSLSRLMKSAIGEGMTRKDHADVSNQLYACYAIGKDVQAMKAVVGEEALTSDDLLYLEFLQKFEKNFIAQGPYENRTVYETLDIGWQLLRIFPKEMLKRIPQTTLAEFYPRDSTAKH
Sequence of bafilomycin-sensitive ATPase in chicken osteoclasts (Q5ZHL0 whole entry, further chain, the tested form may be a part): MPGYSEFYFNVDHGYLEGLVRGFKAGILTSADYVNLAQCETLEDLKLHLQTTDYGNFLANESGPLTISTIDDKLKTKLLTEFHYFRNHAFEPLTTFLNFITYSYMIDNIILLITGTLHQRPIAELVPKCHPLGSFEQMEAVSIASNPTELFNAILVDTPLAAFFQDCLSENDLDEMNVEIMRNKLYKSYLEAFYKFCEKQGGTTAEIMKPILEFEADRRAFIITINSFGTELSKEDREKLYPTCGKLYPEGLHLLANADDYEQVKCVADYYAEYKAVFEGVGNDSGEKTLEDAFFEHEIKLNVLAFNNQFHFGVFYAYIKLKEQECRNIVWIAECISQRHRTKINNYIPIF
Sequence of bafilomycin-sensitive ATPase in chicken osteoclasts (Q90647 whole entry, further chain, the tested form may be a part): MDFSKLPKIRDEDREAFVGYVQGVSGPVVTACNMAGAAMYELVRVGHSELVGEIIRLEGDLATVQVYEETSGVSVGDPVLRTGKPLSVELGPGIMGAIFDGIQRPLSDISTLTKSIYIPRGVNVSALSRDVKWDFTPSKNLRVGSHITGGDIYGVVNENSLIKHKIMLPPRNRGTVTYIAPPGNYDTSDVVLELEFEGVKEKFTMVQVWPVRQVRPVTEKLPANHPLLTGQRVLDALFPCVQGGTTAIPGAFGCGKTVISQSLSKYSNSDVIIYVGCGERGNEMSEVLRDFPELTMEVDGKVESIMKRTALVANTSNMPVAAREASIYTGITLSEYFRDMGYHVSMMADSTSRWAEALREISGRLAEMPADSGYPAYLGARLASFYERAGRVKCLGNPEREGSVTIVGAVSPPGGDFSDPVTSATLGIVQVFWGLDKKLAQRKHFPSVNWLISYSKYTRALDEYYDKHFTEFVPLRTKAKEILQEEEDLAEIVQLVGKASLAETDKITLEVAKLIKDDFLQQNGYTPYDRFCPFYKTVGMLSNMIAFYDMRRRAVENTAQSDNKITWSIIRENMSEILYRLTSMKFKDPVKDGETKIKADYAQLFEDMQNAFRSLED
Sequence of bafilomycin-sensitive ATPase in chicken osteoclasts (A0A8V0Z1D5 entry or part of it): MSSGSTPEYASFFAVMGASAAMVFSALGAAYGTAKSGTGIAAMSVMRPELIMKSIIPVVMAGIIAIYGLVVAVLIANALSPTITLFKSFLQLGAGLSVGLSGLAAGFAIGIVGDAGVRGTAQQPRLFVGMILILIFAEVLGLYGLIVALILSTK
Protocol: Vesicles were prepared from medullar bone obtained from tibiae and femurs of egg-laying hens which were calcium-starved for at least 15 days. Briefly, bone fragments were scraped with a 24 scalpel blade, suspended in 40 ml of isolation medium (0.2 M sucrose, 50 mM KCl, 10 mM Hepes, 1 mM EGTA, 2 mM dithiotheitrol, pH 7.4) and filtered through a 100 μm pore size nylon mesh. The whole procedure was performed at 4° C. After homogenisation in a potter (20 strokes) in 40 ml of isolation medium an initial centrifugation (6,500×gmax×20 min) was performed to remove mitochondria and lysosomes. The supernatant was centrifuged at 100,000×gmax for 1 hr and the pellet was collected in 1 ml of isolation medium, divided into 200 μl aliquots, immediately frozen in liquid nitrogen and stored at −80° C. The protein content was determined using a Biorad colourimetric kit according to Bradford [M. Bradford, Anal. Biochem., 72, 248 (1976)]. For the proton transport assay, 5-10 μl of membranes were used.
Purification of osteoclast membranes. 1 ml of crude microsomal vesicles prepared above were applied (about 0.2 ml per tube) on the top of a sucrose step-gradient consisting of 3.5 ml of 15%, 30% and 45% (w/w) sucrose in isolation medium and centrifuged at 280,000 gmax for 2 hours (SW 41 Ti rotor). After centrifugation the 30-45% sucrose interfaces were collected, diluted approx. 20-fold in isolation medium and pelletted at 100,000 gmax for 1 hour (SW 28 rotor). The pellet was then resuspended in 1 ml of isolation medium, aliquoted and frozen in liquid N2 and stored at −80° C. until used.
Inhibition of bafilomycin-sensitive ATPase activity was assessed in purified membrane vesicles by measuring the release of inorganic phosphate (Pi) during 30 min of incubation at 37° C. in a 96-well plate either in the presence or in the absence of bafilomycin A1. The reaction medium contained 1 mM ATP, 10 mM HEPES-Tris pH 8, 50 mM KCl, 5 uM valinomycin, 5 uM nigericin, 1 mM CDTA-Tris, 100 uM ammonium molybdate, 0.2 M sucrose and membranes (20 ug protein/ml). The reaction was initiated by MgSO4 (8-arm pipette) and stopped, after 30 min, by addition of 4 volumes of the malachite green reagent (96-arm pipette) prepared according to Chan [Anal. Biochem. 157, 375 (1986)]. Absorbance at 650 nm was measured after 2 min using a microplate reader. Results are expressed as μmol (Pi)×mg protein^−1×hour^−1 and, for each experiment, represent the mean±sem of triplicates.

human osteoclasts = assay: Human Osteoclast Resorption Assay; type: cell-based; settings: human osteoclasts on bone slices
Protocol: 1) Bone resorption by disaggregated rat osteoclasts can be assessed as described previously in the literature [T. J. Chambers et al., Endocrinology, 1985, 116, 234]. Briefly, osteoclasts were mechanically disaggregated from neonatal rat long bones into Hepes-buffered medium 199 (Flow, UK). The suspension was agitated with a pipette, and the larger fragments were allowed to settle for 30 sec. The cells were then added to two wells of a multiwell dish containing bone slices (each measuring 12 mm^2). After 15 min at 37° C. the bone slices were removed, washed in medium 199 and placed in individual wells of a 96-well plate. […] The number of osteoclasts and bone resorption were quantified by confocal laser scanning microscopy (CLSM): the bone slices were fixed with 2% glutaraldehyde in 0.2 M cacodylate buffer and the osteoclasts on each bone slice were stained for tartrate-resistant acid phosphatase. […] The number and the size of the osteoclastic excavations, the plain area and the volume of bone resorbed was recorded. Results were expressed as mean pit number per bone slice, mean pit number per osteoclast, mean area per osteoclast or mean volume per osteoclast.
2) Bone resorption by human osteoclasts can be assessed using a modification of the method above. […] Bone slices were then treated and analysed as described above for the rat osteoclast assay.

[2] = system: ovariectomised mature rats; assay: Prevention of bone loss in ovariectomised mature rats; type: in vivo, rat; settings: % prevention of bone loss versus vehicle treated animals
Excerpt: Prevention of bone loss in ovariectomised mature rats. The methodology employed is based on that described by Wronsky et al. [J. Bone Min. Res., 6, 387 (1991)]. The bone loss, prevalently cancellous, occuring after the surgery is monitored by dual emission X-ray absorptiometry (DEXA) measurements of bone mineral density (BMD) of long bones and by HPLC measurements of urinary levels of products of bone collagen breakdown, such as the cross-link residues pyridinoline (PYD), deoxypyridinoline (DPD) and lysine glycosides, i.e. galactosyl-hydroxylysine (GHYL) and glucosyl-galactosyl-hydroxylysine (GGHYL). Groups of 7-10 female Sprague-Dawley rats, about 90 days old and weighing 200-250 g are used. Rats are anesthetised by sodium pentobarbital (35 mg/kg i.v.), laparotomy is performed and ovaries are bilaterally removed. Wounds are adequately disinfected and sutured. A group is sham operated. […] Before and at the end of the experimental period, the bone metaphyseal mineral densities of left distal femur and proximal tibia were evaluated in vivo using lightly anaesthetised animals. Results are expressed as % of prevention of bone loss versus vehicle treated animals, using the following equation, where BMD indicates the bone mineral density at the end of the experimental period and is expressed as the percent of pre-ovariectomy baseline: [formula] […]

osteoclast proton pump = settings: avian osteoclast membrane vesicles; cited from earlier work
osteoclast cultures = settings: cited from earlier work
[3] = chicken osteoclast membranes, read-out: IC50 (nM) ATPase assay
[4] = read-out: IC50 (nM) ATPase assay, chicken osteoclast membranes

Compound	melting point [°C]	IC50 [1, 3] [nM]	inhibition of proton transport by the osteoclast proton pump (osteoclast proton pump)	also measured
COC(=CC=Cc1cc2cc(Cl)c(Cl)cc2[nH]1)C(=O)NCCCN1C(C)CN(c2ncccn2)CC1C (stereo not shown) (as salt: hydrochloride) [Example 62, (2Z,4E)-5-(5,6-Dichloro-1H-indol-2-yl)-N-[3-[2,6-dimethyl-4-(2-pyrimidinyl)plperazin-1-yl]propyl]-2-methoxy-2,4-pentadienamide hydrochloride]	245			
CO/C(=C\C=C\c1cc2cc(Cl)c(Cl)cc2[nH]1)C(=O)NC1CC(C)(C)N(C)C(C)(C)C1 [Example 1, (2Z,4E)-5-(5,6-Dichloro-1H-indol-2-yl)-2-methoxy-N-(1,2,2,6,6-pentamethylpiperidin-4-yl)-2,4-pentadienamide]		24		IC50 (human osteoclasts): 0.0034 µM; Protection of bone loss in ovariectomised mature rats at 10 mg/kg p.o. [2]: 76%
CO/C(=C\C=C\c1cc2cc(Cl)c(Cl)cc2[nH]1)C(=O)NC1CCCC(N(C)C)C1 (stereo not shown) [Example 61, (2Z,4E)-5-(5,6-Dichloro-1H-indol-2-yl)-N-(3-dimethylamino-cyclohexyl)-2-methoxy-2,4-pentadienamide]	200 to 201	41		
COC(=CC=Cc1cc2cc(Cl)c(Cl)cc2[nH]1)C(=O)NCCCN1C(C)CN(c2ncccn2)CC1C (stereo not shown) [Example 62, (2Z,4E)-5-(5,6-Dichloro-1H-indol-2-yl)-N-[3-[2,6-dimethyl-4-(2-pyrimidinyl)plperazin-1-yl]propyl]-2-methoxy-2,4-pentadienamide hydrochloride]		30		
CO/C(=C\C=C\c1cc2cc(Cl)c(Cl)cc2[nH]1)C(=O)NCCCN1CCN(c2ccccc2)CC1 [Example 64, (2Z,4E)-5-(5,6-Dichloro-1H-indol-2-yl)-2-methoxy-N-(3-[-4-(phenyl)piperazin-1-yl]propyl] 2,4-pentadienamide]	223 to 225			IC50 [1, 4]: 67 nM
CO/C(=C\C=C\c1cc2cc(Cl)c(Cl)cc2[nH]1)C(=O)NCCCN1CCN(c2cccc(Cl)c2)CC1 [Example 68, (2Z,4E)-5-(5,6-Dichloro-1H-indol-2-yl)-N-[3-[-4-(3-chlorophenyl)piperazin-1-yl]propyl]-2-methoxy-2,4 pentadienamide]	192 to 193			IC50 [1, 4]: 18 nM
CO/C(=C\C=C\c1cc2cc(Cl)c(Cl)cc2[nH]1)C(=O)NCCCN1CCCN(c2ncccn2)CC1 [Example 74, (2Z,4E)-5-(5,6-Dichloro-1H-indol-2-yl)-N-[3-[4-(2-pyrimidinyl)homopiperazin-1-yl]propyl]-2-methoxy-2,4-pentadienamide]	220 to 222	42		
CO/C(=C\C=C\c1cc2cc(Cl)c(Cl)cc2[nH]1)C(=O)NCCCN1CCN(c2ccccn2)CC1 [Example 75, (2Z,4E)-5-(5,6-Dichloro-1H-indol-2-yl)-N-[3-[4-(2-pyridyl)piperazin-1-yl]propyl]-2-methoxy-2,4-pentadienamide]	219 to 220	30		
CCN1C(=O)C=CC1=O [N-ethylmaleimide]			inhibited	
Cc1nc2c(OCc3ccccc3)cccn2c1CC#N [SCH 28080]			not inhibited	
CO/C1=C\C(C)=C\[C@@H](C)[C@@H](O)[C@@H](C)C/C(C)=C/C=C/[C@H](OC)[C@@H]([C@@H](C)[C@@H](O)[C@H](C)[C@@]2(O)C[C@@H](O)[C@H](C)[C@@H](C(C)C)O2)OC1=O [bafilomycin A1]			inhibited	inhibition of bone resorption in osteoclast cultures (osteoclast cultures): able to inhibit
C[C@@H]1O[C@@H](O[C@H]2C[C@@H](O)[C@]3(CO)[C@H]4[C@H](O)C[C@]5(C)[C@@H](C6=CC(=O)OC6)CC[C@]5(O)[C@@H]4CC[C@]3(O)C2)[C@H](O)[C@H](O)[C@H]1O [ouabain]			not inhibited	
[Na+].[Na+].[Na+].[O]=[V]([O-])([O-])[O-] [sodium orthovanadate]			not inhibited	
(2Z,4E)-5-(5,6-Dichloro-1H- indol-2-yl)-N-(2a beta, 4a alpha, 6 beta, 7a alpha- decahydro-pyrrolo[2.1.5- cd]indolizyn-6-yl)-2- methoxy-2,4- pentadienamide [Example 55]		23		
